# Results taken from ChEMBL document CHEMBL4689842, “EUbOPEN Chemogenomics Library wave 1” (2021).
# Legend:
# Type in all cases: toxicity, cell-based
# HEK-293T = experiment: Incucyte cell viability with HEK293T; details: human, 10 µM, compound concentration 10 uM
# Fibroblast = experiment: Incucyte cell viability with human fibroblast; details: 10 µM, compound concentration 10 uM
# U2OS = experiment: Incucyte cell viability with U2OS; details: human, 10 µM, compound concentration 10 uM
# [1] = 0 h, replicate number 1, timepoint 0 hours
# [2] = 6 h, replicate number 1, timepoint 6 hours
# [3] = 6 h, replicate number 2, timepoint 6 hours
# [4] = 12 h, replicate number 1, timepoint 12 hours
# [5] = 12 h, replicate number 2, timepoint 12 hours
# [6] = 18 h, replicate number 1, timepoint 18 hours
# [7] = 24 h, replicate number 1, timepoint 24 hours
# [8] = 0 h, replicate number 2, timepoint 0 hours
# [9] = 18 h, replicate number 2, timepoint 18 hours
# [10] = 24 h, replicate number 2, timepoint 24 hours
# Note: filed as whole numbers so only -1 and 0 and 1 occur.
Compound,Growth Rate (HEK-293T; [1]),Growth Rate (HEK-293T; [2]),Growth Rate (HEK-293T; [3]),Growth Rate (HEK-293T; [4]),Growth Rate (HEK-293T; [5]),Growth Rate (HEK-293T; [6]),Growth Rate (HEK-293T; [7]),Growth Rate (Fibroblast; [1]),Growth Rate (Fibroblast; [2]),Growth Rate (Fibroblast; [3]),Growth Rate (Fibroblast; [4]),Growth Rate (Fibroblast; [6]),Growth Rate (Fibroblast; [7]),Growth Rate (U2OS; [1]),Growth Rate (U2OS; [3]),Growth Rate (U2OS; [4]),Growth Rate (U2OS; [6]),Growth Rate (U2OS; [7]),Growth Rate (U2OS; [2]),Growth Rate (U2OS; [10]),further results
CS(=O)(=O)c1cc(C2(NC(=O)c3cncc4c3cnn4-c3ccc(F)cc3)CC2)ccn1 [BI 639667],0,1,0,1,0,1,1,0,1,0,1,0,0,0,1,1,0,1,,,Growth Rate (Fibroblast; [5]): 0; Growth Rate (U2OS; [8]): 1; Growth Rate (U2OS; [5]): 0; Growth Rate (U2OS; [9]): 1
CCc1cc2c(c(CC)n1)CCC(=O)N2Cc1ccc(-c2ccccc2-c2nnn[nH]2)cc1.Cl,0,1,0,1,,1,1,0,0,1,0,0,1,1,,0,0,0,0,1,Growth Rate (HEK-293T; [9]): 0; Growth Rate (Fibroblast; [9]): 1; Growth Rate (U2OS; [8]): 0
NS(=O)(=O)c1cc(NC(=O)C2(c3ccccc3Cl)CC2)ccc1Oc1cccc(Cl)c1 [BAY-207],0,0,,0,,0,0,0,1,0,,1,1,0,,0,0,1,0,0,Growth Rate (Fibroblast; [5]): 1
C[C@H]1CCCN1Cc1nc2cc(NC(=O)c3ccc4cnccc4c3)ccc2[nH]1,1,0,,0,,1,1,0,0,,1,0,0,0,,1,1,1,0,,Growth Rate (HEK-293T; [8]): 0; Growth Rate (HEK-293T; [10]): 0; Growth Rate (Fibroblast; [9]): 1; Growth Rate (Fibroblast; [10]): 1
C[C@@H](NCCc1ccc(O)cc1)[C@@H](O)c1ccc(O)cc1.Cl (relative stereo),0,0,1,0,1,0,0,0,,,,,,0,1,1,1,1,,,Growth Rate (Fibroblast; [9]): 1; Growth Rate (Fibroblast; [10]): 1
CN1C(=O)[C@@H](N2CCc3c(nn(Cc4ccccc4)c3Br)C2=O)COc2ccccc21 [TP-030-2],0,,0,,0,1,1,,0,,0,0,0,0,1,0,0,0,0,1,Growth Rate (HEK-293T; [8]): 1; Growth Rate (HEK-293T; [10]): 0; Growth Rate (U2OS; [5]): 1; Growth Rate (U2OS; [9]): 1
CN(C)C(=O)c1ccc(-c2cc(C(=O)N(C)C3CCCC3)no2)cc1O,0,1,,0,1,1,1,0,,,1,1,1,1,,1,1,1,1,0,Growth Rate (U2OS; [9]): 0
